In patent US20130014428A1, “METHODS OF MONITORING AND CONTROLLING THE WALNUT TWIG BEETLE, PITYOPHTHORUS JUGLANDIS” (The United States of America as Represented by the …, priority 2011, published 2013):

Experiments:
Format in all cases: in vivo, Pityophthorus juglandis
WTB [1] = test: Two release rate (pouch vs. bottle) experiment, 4-unit Lindgren funnel traps; conditions: for trap catches, female WTB / trap catches, male WTB: N=40
Method: Field Testing of Various Release Rates of 3-methyl-2-buten-1-ol. The flight response of WTB to two release rates of 3-methyl-2-buten-1-ol was tested at the Wolfskill Experimental Orchards (the Juglans collection of the USDA ARS National Clonal Germplasm Repository in Winters, Solano Co., Calif.) in late spring. The two release rates were: 1) 15-80 mg/d (depending on temperature, as per manufacturer's data), delivered from a commercially available LDPE plastic pouch (Product #300000736, RD-1039, Contech Enterprises Inc., Delta, BC, Canada); and 2) 5 mg/d (based on laboratory assessments at 25° C. and 30° C.), delivered from a 15 ml polyethylene bottle charged with 15 ml of 3-methyl-2-buten-1-ol [≧98% chemical purity, product #W364703, SAFC (=Sigma-Aldrich), St. Louis Mo.]. The pouch or bottle was suspended in the middle of a 4-unit Lindgren funnel trap (Contech), attached to the funnel strut so it rested on the inside surface of the third funnel (counted from the trap top), without blocking the central axis/interior hole of the trap. The trap cup was filled with propylene glycol-based recreational vehicle/marine antifreeze to a depth of about 2.5 to 5 cm, and the traps were hung from poles at a height of approximately 3 m. (See Seybold, S. J., Dallara, P. L., Hishinuma, S. M., and Flint, M. L. Detecting and Identifying the Walnut Twig Beetle: Monitoring Guidelines for the Invasive Vector of Thousand Cankers Disease of Walnut, University of California Agriculture and Natural Resources, Statewide Integrated Pest Management Program, 11 pp., Apr. 30, 2012). The two treatments were replicated in four spatial blocks and the treatments were re-randomized between the two trap stations in a block each time the traps were emptied (nearly every day).
(§1) Statistical Analyses. Analysis of treatment effects for the pouch vs. bottle experiment was done by using a sign test. (See Zar, J. H. 2010. Biostatistical Analysis. 5th ed. Pearson Prentice Hall, Englewood Cliffs, N.J.) The other four experiments were analyzed for treatment effect by using Friedman's non-parametric analysis of variance. Id. In all experiments, males and females were analyzed separately. All treatments within experiments yielding a significant treatment effect were compared by using an a posteriori Nemenyi test with experimentwise α=0.05. Id. For all experiments, differences among proportions of female WTB responding to treatments were analyzed by comparing 95% confidence intervals determined with the Clopper-Pearson method. Id.

WTB [2] = test: Example 2 Field Test 3: X and racemic trans-pityol; conditions: 4-unit Lindgren funnel traps
Method: Finally, a flight bioassay of the effect of the compound racemic trans-“pityol” [2-(1-hydroxy-1-methylethyl)-5-methyltetrahydrofuran] was conducted in late summer/early fall at Wolfskill Experimental Orchards. Pityol is a component of the aggregation pheromone of conifer-infesting Pityophthorus species. The response of WTB to racemic trans-pityol (formulated in a polyvinylchloride plastic bubble cap release device, 40 mg load, 0.2 mg/d release rate at 20° C., product #300000272, Contech Enterprises) and pityol in combination with 3-methyl-2-buten-1-ol (release rate 15-80 mg/d, LDPE plastic pouch Contech) was tested (Table 3, Field Test 3). The four treatments were replicated in three spatial blocks and the treatments were re-randomized among the four trap stations in a block each time the traps were emptied (nearly every day).
as §1

WTB [3] = test: Baited vs unbaited funnel trap pairs in Tennessee and Virginia; conditions: 15-80 mg/d
Method: The efficacy of the WTB trap bait as a detection tool was tested across the United States for a range of populations of the beetle that might be biologically heterogeneous and may occur at various densities in the landscape. The information learned from these trials was instrumental in preparing the national trapping guidelines for walnut twig beetle. […] For each state, trapping was performed in areas of known WTB infestation as well as nearby localities where WTB had not been previously detected. […]
To compare the effectiveness of the bait in the eastern range of WTB, pairs of baited and unbaited traps were located in Tennessee (3 pairs, 10 repeated measures for each pair) and Virginia (4 pairs, 12 repeated measures for each pair). […] Trap catch data were analyzed with a sign test. […]

[4] = release rate 5 mg/d (bottle with 15 ml load)
[5] = release rate 15-80 mg/d (pouch)
[6] = X 15-80 mg/d, pityol 0.2 mg/d, N=93

Question: `CC(C)=CCO` [X, 3-methyl-2-buten-1-ol] was tested. Which “proportion of females responding” value (WTB [1]; higher release rate (15-80 mg/d)) did it give?
Answer: The value was 0.71.

Question: What about the “proportion of females responding” value (WTB [1]; lower release rate (5 mg/d)) of the same molecule?
Answer: The value was 0.63.

Question: What about the “trap catches, female WTB” value (WTB [1]; [4]) of the same molecule?
Answer: The value was 3072.

Question: And the “trap catches, male WTB” value (WTB [1]; [4])?
Answer: Its value is 1828.

Question: What about the “trap catches, female WTB” value (WTB [1]; [5]) of the same molecule?
Answer: Its value is 3085.

Question: And the “trap catches, male WTB” value (WTB [1]; [5])?
Answer: The value was 1284.

Question: What about the “difference between release rate treatments” value (WTB [1]; two-sided sign test, pouch vs bottle) of the same molecule?
Answer: Its value is “male response was greater for the lower release rate plastic bottle treatment”.

Question: And the “proportion of females responding” value (WTB [2])?
Answer: The value was 0.80.

Question: What about the “trap catches, female WTB” value (WTB [2]; [6]) of the same molecule?
Answer: The value was 2100.

Question: What about the “trap catches, male WTB” value (WTB [2]; [6]) of the same molecule?
Answer: Its value is 539.

Question: And the “WTB detected at baited traps” value (WTB [3]; Tennessee, 4-unit funnel traps, N=30)?
Answer: The value was 19.1 WTB/trap/week.

Question: What about the “WTB captured in baited traps” value (WTB [3]; Virginia, 12-unit funnel traps, N=48) of the same molecule?
Answer: The value was 42.3 WTB/trap/week.
